{"source": "patent US20180207228A1", "about": "“PEPTIDE COMBINATIONS AND USES THEREOF FOR TREATING GRASS ALLERGY” (ALK-Abelló A/S, priority 2015, published 2018)", "system": "grass pollen allergic donor derived TCL-03 lines", "experiment": "Extended cross-reactivity study, proliferation on TCL03 DK1+DK2 (Study XR2), scoring", "type": "cell-based, human", "design": "Cross-reactivity score: scale not given here", "settings": "for cross-reactivity of homologue / cross-reactivity score of homologue: 2 μg/ml, 20 donors; for cross-reactivity score of homologue: score 0 to 7", "key": {"[1]": {"settings": "homologue of peptide 205 (Phl p 1), Table 41"}, "[2]": {"settings": "homologue of peptide 285, Table 50"}, "[3]": {"settings": "homologue of peptide 217 (Phl p 3), Table 45"}, "[4]": {"settings": "homologue of peptide 238 (Phl p 5), Table 48"}, "[5]": {"settings": "homologue of peptide 207 (Phl p 1), Table 43"}, "[6]": {"settings": "homologue of peptide 206 (Phl p 1), Table 42"}, "[7]": {"settings": "homologue of peptide 211 (Phl p 1), Table 44"}}, "note": "Where no end group is shown, it is not given here."}
{"compound": "YHFDLSGHAFGSMAKKGEEQ-OH [compound 372]", "values": [{"measurement": "cross-reactivity of homologue", "result": "very high reactivity"}, {"measurement": "Cross-reactivity score", "setting": "[1]", "result": 7}]}
{"compound": "TDMNYEQIAAYHFDLAGTAF-OH [compound 370]", "values": [{"measurement": "Cross-reactivity score", "setting": "homologue of peptide 204 (Phl p 1), Table 40", "result": 2}]}
{"compound": "YHFDLSGHAFGSMAKKGEEE-OH [compound 373]", "values": [{"measurement": "cross-reactivity of homologue", "result": "very high reactivity"}, {"measurement": "Cross-reactivity score", "setting": "[1]", "result": 6}]}
{"compound": "AYQSYKFIPALEAAVKQSYA-OH [compound 416]", "values": [{"measurement": "cross-reactivity score of homologue", "result": 1}, {"measurement": "Cross-reactivity score", "setting": "[2]", "result": 1}]}
{"compound": "YHFDLSGKAFGAMAKKGEED-OH [compound 371]", "values": [{"measurement": "Cross-reactivity score", "setting": "[1]", "result": 2}]}
{"compound": "CC[C@H](C)[C@H](NC(=O)[C@H](CC(N)=O)NC(=O)[C@H](CC(C)C)NC(=O)[C@@H](NC(=O)[C@H](CC(C)C)NC(=O)[C@@H](NC(=O)[C@H](CCCCN)NC(=O)[C@H](C)NC(=O)[C@H](CC(=O)O)NC(=O)[C@H](CO)NC(=O)CN)[C@@H](C)O)C(C)C)C(=O)N[C@@H](CCCCN)C(=O)N[C@@H](Cc1ccc(O)cc1)C(=O)N[C@H](C(=O)N[C@@H](CCCNC(=N)N)C(=O)N1CCC[C@H]1C(=O)NCC(=O)N[C@@H](CC(=O)O)C(=O)N[C@H](C(=O)N[C@@H](CC(C)C)C(=O)O)[C@@H](C)O)[C@@H](C)O", "note": "[compound 328]", "values": [{"measurement": "cross-reactivity of homologue", "result": "considerable cross-reactivity"}, {"measurement": "Cross-reactivity score", "setting": "[3]", "result": 5}]}
{"compound": "STGGAYQSYKFIPALEAAVK-OH [compound 406]", "values": [{"measurement": "Cross-reactivity score", "setting": "[4]", "result": 4}]}
{"compound": "AGELELKFRRVKSEYPEGTK-OH [compound 385]", "values": [{"measurement": "Cross-reactivity score", "setting": "[5]", "result": 1}]}
{"compound": "CC[C@H](C)[C@H](NC(=O)[C@H](Cc1ccccc1)NC(=O)[C@H](CCCCN)NC(=O)[C@H](Cc1ccc(O)cc1)NC(=O)[C@@H](NC(=O)[C@H](CCC(=O)O)NC(=O)[C@H](Cc1ccc(O)cc1)NC(=O)[C@H](C)NC(=O)CNC(=O)CNC(=O)[C@@H](NC(=O)[C@@H](N)CO)[C@@H](C)O)[C@@H](C)O)C(=O)N1CCC[C@H]1C(=O)N[C@@H](CO)C(=O)N[C@@H](CC(C)C)C(=O)N[C@@H](CCC(=O)O)C(=O)N[C@@H](C)C(=O)N[C@@H](C)C(=O)N[C@H](C(=O)N[C@@H](CCCCN)C(=O)O)C(C)C", "note": "[compound 405]", "values": [{"measurement": "Cross-reactivity score", "setting": "[4]", "result": 5}]}
{"compound": "GEEDKLRKAGELMLQFRRVK-OH [compound 376]", "values": [{"measurement": "Cross-reactivity score", "setting": "[6]", "result": 0}]}
{"compound": "YHFDLAGTAFGAMAKKGEEE-OH [compound 375]", "values": [{"measurement": "cross-reactivity of homologue", "result": "very high reactivity"}, {"measurement": "Cross-reactivity score", "setting": "[1]", "result": 7}]}
{"compound": "YHFDLSGKAFGAMAKKGEEQ-OH [compound 374]", "values": [{"measurement": "Cross-reactivity score", "setting": "[1]", "result": 3}]}
{"compound": "WGSIWRVDTPDKLTGPFTVR-OH [compound 395]", "values": [{"measurement": "cross-reactivity of homologue", "result": "considerable cross-reactivity"}, {"measurement": "Cross-reactivity score", "setting": "[7]", "result": 3}]}
{"compound": "ERDFLTSLTKDIPPRQLYAK-OH [compound 398]", "values": [{"measurement": "cross-reactivity score of homologue", "result": 1}, {"measurement": "Cross-reactivity score", "setting": "homologue of peptide 222 (Phl p 4), Table 46", "result": 1}]}
{"compound": "GEEEKLRKAGIIDMKFRRVK-OH [compound 381]", "values": [{"measurement": "Cross-reactivity score", "setting": "[6]", "result": 0.5}]}
{"compound": "GEEQKLRSAGELELKFRRVK-OH [compound 380]", "values": [{"measurement": "Cross-reactivity score", "setting": "[6]", "result": 0.5}]}
{"compound": "AGELELQFRRVKSKYPDGTK-OH [compound 383]", "values": [{"measurement": "cross-reactivity of homologue", "result": "considerable cross-reactivity"}, {"measurement": "Cross-reactivity score", "setting": "[5]", "result": 6}]}
{"compound": "VDKIDAAYKIAATAANAAPA-OH [compound 399]", "values": [{"measurement": "Cross-reactivity score", "setting": "homologue of peptide 235 (Phl p 5), Table 53", "result": 5}]}
{"compound": "AYESYKFIPTLEAAVKQAYA-OH [compound 413]", "values": [{"measurement": "Cross-reactivity score", "setting": "[2]", "result": 6}]}
{"compound": "GEEENVRGAGELELQFRRVK-OH [compound 379]", "values": [{"measurement": "Cross-reactivity score", "setting": "[6]", "result": 1}]}
{"compound": "STGGAYESYKFIPTLEAAVK-OH [compound 404]", "values": [{"measurement": "Cross-reactivity score", "setting": "[4]", "result": 5}]}
{"compound": "WGAVWRIDTPDKLTGPFTVR-OH [compound 393]", "values": [{"measurement": "cross-reactivity of homologue", "result": "considerable cross-reactivity"}, {"measurement": "Cross-reactivity score", "setting": "[7]", "result": 4}]}
{"compound": "CC[C@H](C)[C@H](NC(=O)[C@H](Cc1ccccc1)NC(=O)[C@@H](N)CCCCN)C(=O)N1CCC[C@H]1C(=O)N[C@@H](C)C(=O)N[C@@H](CC(C)C)C(=O)N[C@@H](CCC(=O)O)C(=O)N[C@@H](C)C(=O)N[C@@H](C)C(=O)N[C@H](C(=O)N[C@@H](CCCCN)C(=O)N[C@@H](CCC(N)=O)C(=O)N[C@@H](CO)C(=O)N[C@@H](Cc1ccc(O)cc1)C(=O)N[C@@H](C)C(=O)N[C@@H](C)C(=O)N[C@H](C(=O)N[C@H](C(=O)N[C@@H](C)C(=O)N[C@H](C(=O)O)[C@@H](C)O)C(C)C)[C@@H](C)O)C(C)C", "note": "[compound 409]", "values": [{"measurement": "Cross-reactivity score", "setting": "homologue of peptide 239 (Phl p 5), Table 49", "result": 7}]}
{"compound": "WGAIWRMDTPKALVPPFSIR-OH [compound 394]", "values": [{"measurement": "Cross-reactivity score", "setting": "[7]", "result": 1}]}
{"compound": "VDKIDAAYKIAATAANAAPAN-OH [compound 417]", "values": [{"measurement": "Cross-reactivity score", "setting": "homologue of peptide 286 (Phl p 5), Table 52", "result": 7}]}
{"compound": "WGAIWRKDSDKPIKFPVTVQ-OH [compound 396]", "values": [{"measurement": "Cross-reactivity score", "setting": "[7]", "result": 0.5}]}
{"compound": "GEEQKLRSAGELELQFRRVK-OH [compound 377]", "values": [{"measurement": "Cross-reactivity score", "setting": "[6]", "result": 2}]}
{"compound": "AGELTLQFRRVKSKYPSGTK-OH [compound 318]", "values": [{"measurement": "Cross-reactivity score", "setting": "[5]", "result": 0}]}
{"compound": "GLNDKLRHYGIFDLEFRRVR-OH [compound 378]", "values": [{"measurement": "Cross-reactivity score", "setting": "[6]", "result": 0}]}
{"compound": "WGAIWRVDTPDKLTGPFTVR-OH [compound 392]", "values": [{"measurement": "cross-reactivity of homologue", "result": "considerable cross-reactivity"}, {"measurement": "Cross-reactivity score", "setting": "[7]", "result": 5}]}
{"compound": "CC[C@H](C)[C@H](NC(=O)[C@H](Cc1ccccc1)NC(=O)[C@H](CCCCN)NC(=O)[C@H](Cc1ccc(O)cc1)NC(=O)[C@@H](NC(=O)[C@H](CCC(=O)O)NC(=O)[C@H](Cc1ccc(O)cc1)NC(=O)[C@H](C)NC(=O)CNC(=O)[C@H](C)NC(=O)[C@@H](NC(=O)[C@@H](N)CO)[C@@H](C)O)[C@@H](C)O)C(=O)N1CCC[C@H]1C(=O)N[C@@H](CO)C(=O)N[C@@H](CC(C)C)C(=O)N[C@@H](CCC(=O)O)C(=O)N[C@@H](C)C(=O)N[C@@H](C)C(=O)N[C@H](C(=O)N[C@@H](CCCCN)C(=O)O)C(C)C", "note": "[compound 363]", "values": [{"measurement": "Cross-reactivity score", "setting": "[4]", "result": 5}]}
{"compound": "GSDPKKLVLDIKYTRPGDTL-OH [compound 397]", "values": [{"measurement": "Cross-reactivity score", "setting": "[3]", "result": 1}]}
{"compound": "YGIFDLEFRRVRSKYQGGQK-OH [compound 384]", "values": [{"measurement": "Cross-reactivity score", "setting": "[5]", "result": 0.5}]}
{"compound": "AGELELQFRRVKSKYPEGTK-OH [compound 382]", "values": [{"measurement": "cross-reactivity of homologue", "result": "considerable cross-reactivity"}, {"measurement": "Cross-reactivity score", "setting": "[5]", "result": 3}]}
{"compound": "WGAIWRIDPPKPLKGPFTIR-OH [compound 391]", "values": [{"measurement": "Cross-reactivity score", "setting": "[7]", "result": 0.5}]}
